Source: PubChem BioAssay AID1963436 (Molecular Pharmacology Branch, DTP, NCI, 2024)

Tested on: OVCAR-5 complex spheroid (HUVEC/MSC), viability % T/C
Assay: Anticancer human tumor OVCAR-5 cell line growth inhibition [Asc];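 further: spheroids exposed to agents for 7 days before readout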;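 on viability, T/C: 100% = DMSO vehicle-treated wells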
Conditions: for IC50: curve of first compound; for viability, T/C: stronger effect = lower value
Outline: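 Complex spheroids combining tumor cells with HUVEC endothelial cells and human MSCs, at 37 degrees C, 5% CO2; agents tested alone or combined, half-log dilutions from at or near clinical Cmax, or 10 microM if Cmax unknown.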

## CCN1C(C(=O)NC23CCC(C(=O)O)(CC2)CC3)C(c2cccc(Cl)c2F)C2(C(=O)Nc3cc(Cl)ccc32)C12CCCCC2 (stereo not given) + Cc1c(S(C)(=O)=O)c(-c2cc(F)cc(N3CCN(c4ccc(NS(=O)(=O)c5ccc(NC(CCN6CCC(C(=O)OCCCP(=O)(O)O)CC6)CSc6ccccc6)c(S(=O)(=O)C(F)(F)F)c5)cc4)CC3)c2)c(-c2ccc(Cl)cc2)n1C(C)C
Second compound 0.1 µM
  IC50: > 3 µM
Second compound 0.316 µM
  IC50: > 3 µM
Second compound 1 µM
  IC50: > 3 µM
Second compound 3.16 µM
  IC50: > 3 µM
Second compound 10 µM
  IC50: > 3 µM
Second compound 0.1 µM, first compound 0.00949 µM
  viability, T/C: 102%
Second compound 0.1 µM, first compound 0.03 µM
  viability, T/C: 93.8%
Second compound 0.1 µM, first compound 0.0949 µM
  viability, T/C: 93.1%
Second compound 0.1 µM, first compound 0.3 µM
  viability, T/C: 86.9%
Second compound 0.1 µM, first compound 0.949 µM
  viability, T/C: 97.3%
Second compound 0.1 µM, first compound 3 µM
  viability, T/C: 92.5%
Second compound 0.316 µM, first compound 0.00949 µM
  viability, T/C: 86.3%
Second compound 0.316 µM, first compound 0.03 µM
  viability, T/C: 101%
Second compound 0.316 µM, first compound 0.0949 µM
  viability, T/C: 90.2%
Second compound 0.316 µM, first compound 0.3 µM
  viability, T/C: 82.8%
Second compound 0.316 µM, first compound 0.949 µM
  viability, T/C: 91.3%
Second compound 0.316 µM, first compound 3 µM
  viability, T/C: 83.3%
Second compound 1 µM, first compound 0.00949 µM
  viability, T/C: 88%
Second compound 1 µM, first compound 0.03 µM
  viability, T/C: 85.5%
Second compound 1 µM, first compound 0.0949 µM
  viability, T/C: 88.5%
Second compound 1 µM, first compound 0.3 µM
  viability, T/C: 86.9%
Second compound 1 µM, first compound 0.949 µM
  viability, T/C: 75.4%
Second compound 1 µM, first compound 3 µM
  viability, T/C: 83%
Second compound 3.16 µM, first compound 0.00949 µM
  viability, T/C: 84.7%
Second compound 3.16 µM, first compound 0.03 µM
  viability, T/C: 92.4%
Second compound 3.16 µM, first compound 0.0949 µM
  viability, T/C: 97.4%
Second compound 3.16 µM, first compound 0.3 µM
  viability, T/C: 78.7%
Second compound 3.16 µM, first compound 0.949 µM
  viability, T/C: 74.1%
Second compound 3.16 µM, first compound 3 µM
  viability, T/C: 69.3%
Second compound 10 µM, first compound 0.00949 µM
  viability, T/C: 114%
Second compound 10 µM, first compound 0.03 µM
  viability, T/C: 122%
Second compound 10 µM, first compound 0.0949 µM
  viability, T/C: 126%
Second compound 10 µM, first compound 0.3 µM
  viability, T/C: 111%
Second compound 10 µM, first compound 0.949 µM
  viability, T/C: 102%
Second compound 10 µM, first compound 3 µM
  viability, T/C: 89.8%

## CNC(C)C(=O)NC1CN(S(=O)(=O)c2cccc(S(=O)(=O)N3CCC4CCC(C(=O)NC(c5ccccc5)c5ccccc5)N4C(=O)C(NC(=O)C(C)NC)C3)c2)CCC2CCC(C(=O)NC(c3ccccc3)c3ccccc3)N2C1=O (stereo not given) + Cc1c(S(C)(=O)=O)c(-c2cc(F)cc(N3CCN(c4ccc(NS(=O)(=O)c5ccc(NC(CCN6CCC(C(=O)OCCCP(=O)(O)O)CC6)CSc6ccccc6)c(S(=O)(=O)C(F)(F)F)c5)cc4)CC3)c2)c(-c2ccc(Cl)cc2)n1C(C)C
Second compound 0.1 µM
  IC50: > 1 µM
Second compound 0.316 µM
  IC50: > 1 µM
Second compound 1 µM
  IC50: > 1 µM
Second compound 3.16 µM
  IC50: > 1 µM
Second compound 10 µM
  IC50: > 1 µM
Second compound 0.1 µM, first compound 0.00316 µM
  viability, T/C: 97.7%
Second compound 0.1 µM, first compound 0.01 µM
  viability, T/C: 91.1%
Second compound 0.1 µM, first compound 0.0316 µM
  viability, T/C: 83.2%
Second compound 0.1 µM, first compound 0.1 µM
  viability, T/C: 79.3%
Second compound 0.1 µM, first compound 0.316 µM
  viability, T/C: 85.2%
Second compound 0.1 µM, first compound 1 µM
  viability, T/C: 76.1%
Second compound 0.316 µM, first compound 0.00316 µM
  viability, T/C: 96.2%
Second compound 0.316 µM, first compound 0.01 µM
  viability, T/C: 87.7%
Second compound 0.316 µM, first compound 0.0316 µM
  viability, T/C: 78%
Second compound 0.316 µM, first compound 0.1 µM
  viability, T/C: 77.8%
Second compound 0.316 µM, first compound 0.316 µM
  viability, T/C: 74.8%
Second compound 0.316 µM, first compound 1 µM
  viability, T/C: 81%
Second compound 1 µM, first compound 0.00316 µM
  viability, T/C: 90.7%
Second compound 1 µM, first compound 0.01 µM
  viability, T/C: 86.9%
Second compound 1 µM, first compound 0.0316 µM
  viability, T/C: 78.8%
Second compound 1 µM, first compound 0.1 µM
  viability, T/C: 75.2%
Second compound 1 µM, first compound 0.316 µM
  viability, T/C: 67.1%
Second compound 1 µM, first compound 1 µM
  viability, T/C: 75%
Second compound 3.16 µM, first compound 0.00316 µM
  viability, T/C: 89.1%
Second compound 3.16 µM, first compound 0.01 µM
  viability, T/C: 94.3%
Second compound 3.16 µM, first compound 0.0316 µM
  viability, T/C: 83%
Second compound 3.16 µM, first compound 0.1 µM
  viability, T/C: 68.1%
Second compound 3.16 µM, first compound 0.316 µM
  viability, T/C: 71.5%
Second compound 3.16 µM, first compound 1 µM
  viability, T/C: 81.6%
Second compound 10 µM, first compound 0.00316 µM
  viability, T/C: 119%
Second compound 10 µM, first compound 0.01 µM
  viability, T/C: 130%
Second compound 10 µM, first compound 0.0316 µM
  viability, T/C: 121%
Second compound 10 µM, first compound 0.1 µM
  viability, T/C: 99.8%
Second compound 10 µM, first compound 0.316 µM
  viability, T/C: 108%
Second compound 10 µM, first compound 1 µM
  viability, T/C: 96.8%
